These results are taken from patent US9186337B2, “Lysine demethylase inhibitors for diseases and disorders associated with Hepadnaviridae” (Oryzon Genomics S.A., priority 2010, dated 2015).

A short description of data set [1]: Pharmacokinetics (PK studies). The data set is classed as in vivo, mice. The note with it: at the MTD study doses, in words. Here is the method:
(§1) Maximum tolerated dose studies and pharmacokinetics for several LSD1 inhibitors were assessed to determine if the compound can be administered to mammals safely at does that are expected to achieve therapeutic effects. In particular, compound X was given to mice IP at 20 mg/kg 40 mg/kg and 60 mg/kg daily for 10 days in a MTD study conducted at Leitat.

Data set [2] can be described thus: Cytotoxicity in anti-HBV assay. Conditions: human; HepG2-2.2.15 cells. The data set is classed as cell-based. Here is the method: (§2) Anti-HBV assays were conducted at Southern Research Organization using an HBV DNA replicon with a luciferase reporter.
(§3) Southern Research reports HepG2-2.2.15 is a stable cell line containing the hepatitis B virus (HBV) ayw strain genome. Antiviral compounds blocking any late step of viral replication such as transcription, translation, pregenome encapsidation, reverse transcription, particle assembly and release can be identified and characterized using this cell line. Initially we test whether a compound will reduce the production of secreted HBV from cells utilizing our real time quantitative PCR (TaqMan) HBV DNA assay.

The test system of data set [3] is hepatitis B virus (HBV) ayw strain. Description: Anti-HBV assay with HepG2-2.2.15 cells (HBV DNA replication). The data set is classed as cell-based. Conditions: for Selectivity Index SI50: HepG2-2.2.15 cells; for EC50: Hepatitis B virus, HepG2 2.2.15, read-out: Antiviral Activity EC50. Here is the method:
as §2, §3

A short description of data set [4]: Maximum tolerated dose study in mice. In kind it is in vivo. Conditions: IP, 20, 40 and 60 mg/kg daily for 10 days. Here is the method: as §1

A word on the IC50: it is the concentration at which inhibition is half-maximal. Lower therefore signals higher potency. Broadly, the EC50 is the concentration that produces a half-maximal response. Turning to `NC1CC1c1ccc(-c2cccc(O)c2)cc1` (stereo not drawn) [Compound X], the Cmax entry in data set [1] is recorded as “expected to result in therapeutic levels”. The same compound showed an IC50 in data set [2] of 54.8 µM. Further, in data set [3], the “Selectivity Index SI50” value stood at 26.8 and the EC50 is 2240 nM. Besides, the “activity in an HBV DNA replication assay” value in data set [3] (in words) is given as “low micromolar range”. Also, the “tolerability in MTD study” value in data set [4] was “tolerated with acceptable toxicity”.
In data set [2], `Nc1ccn([C@@H]2CS[C@H](CO)O2)c(=O)n1` (relative stereo) [Compound 3TC, (2R, cis)-4-amino-1-(2-hydroxymethyl-1,3-oxathiolan-5-yl)-(1H)-pyrimidin-2-one, reference compound] registered an IC50 of 60.4 µM. Further, in data set [3], the “Selectivity Index SI50” value was above 100 and the concentration giving a half-maximal response (EC50) was found to be 10 nM.
